Experiments:
[1] = Cytotoxicity against human HCT15 cells assessed as cell viability at 10 uM after 72 hrs by sulforhodamine B assay relative to control; format: functional; conditions: HCT-15, 72 h, read-out: Activity
MDA-MB-231 = test: Cytotoxicity against human MDA-MB-231 cells assessed as cell viability at 10 uM after 72 hrs by sulforhodamine B assay relative to control; format: functional; conditions: MDA-MB-231, 72 h, read-out: Activity
[2] = molecular target: Nuclear factor NF-kappa-B complex (Homo sapiens) (UniProt Q00653+P19838+Q04206); test: Inhibition of NF-kappaB (unknown origin) transcriptional activity in LPS-induced mouse RAW264.7 cells at 30 uM after 1 hr by secreted alkaline phosphatase assay relative to control; format: cell-based
NCI-H23 = test: Cytotoxicity against human NCI-H23 cells assessed as cell viability at 10 uM after 72 hrs by sulforhodamine B assay relative to control; format: functional; conditions: NCI-H23, 72 h, read-out: Activity
[3] = Cytotoxicity against human PC3 cells assessed as cell viability at 10 uM after 72 hrs by sulforhodamine B assay relative to control; format: functional; conditions: PC-3, 72 h, read-out: Activity
[4] = Cytotoxicity against human NUGC3 cells assessed as cell viability at 10 uM after 72 hrs by sulforhodamine B assay relative to control; format: functional; conditions: NUGC-3, 72 h, read-out: Activity
ACHN = test: Cytotoxicity against human ACHN cells assessed as cell viability at 10 uM after 72 hrs by sulforhodamine B assay relative to control; format: functional; conditions: read-out: Activity

Sequence of Nuclear factor NF-kappa-B complex (Homo sapiens) (P19838 whole entry, looked up): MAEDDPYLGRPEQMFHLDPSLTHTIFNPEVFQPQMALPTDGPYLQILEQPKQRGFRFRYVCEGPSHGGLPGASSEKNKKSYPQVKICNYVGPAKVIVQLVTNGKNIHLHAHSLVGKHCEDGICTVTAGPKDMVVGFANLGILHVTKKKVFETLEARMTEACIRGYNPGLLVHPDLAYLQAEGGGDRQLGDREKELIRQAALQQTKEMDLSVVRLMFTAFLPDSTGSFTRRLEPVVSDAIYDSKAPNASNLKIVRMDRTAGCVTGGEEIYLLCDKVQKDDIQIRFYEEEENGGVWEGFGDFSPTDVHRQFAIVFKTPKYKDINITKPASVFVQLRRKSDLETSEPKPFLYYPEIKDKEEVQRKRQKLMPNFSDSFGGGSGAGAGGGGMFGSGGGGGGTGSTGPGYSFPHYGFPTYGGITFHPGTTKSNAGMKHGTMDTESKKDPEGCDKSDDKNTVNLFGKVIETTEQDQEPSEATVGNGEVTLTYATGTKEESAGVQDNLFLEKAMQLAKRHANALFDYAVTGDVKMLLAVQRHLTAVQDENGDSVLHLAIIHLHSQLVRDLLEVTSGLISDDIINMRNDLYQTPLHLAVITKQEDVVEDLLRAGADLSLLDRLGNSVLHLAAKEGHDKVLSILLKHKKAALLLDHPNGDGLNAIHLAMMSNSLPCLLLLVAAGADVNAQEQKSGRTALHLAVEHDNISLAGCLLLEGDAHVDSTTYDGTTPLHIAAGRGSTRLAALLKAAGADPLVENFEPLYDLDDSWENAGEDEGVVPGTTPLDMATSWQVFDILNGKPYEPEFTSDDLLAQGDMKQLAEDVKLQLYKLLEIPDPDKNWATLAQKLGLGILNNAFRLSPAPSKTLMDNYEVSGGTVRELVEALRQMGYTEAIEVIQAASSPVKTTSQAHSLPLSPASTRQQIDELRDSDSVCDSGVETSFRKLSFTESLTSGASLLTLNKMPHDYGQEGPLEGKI
Sequence of Nuclear factor NF-kappa-B complex (Homo sapiens) (Q00653 whole entry, looked up): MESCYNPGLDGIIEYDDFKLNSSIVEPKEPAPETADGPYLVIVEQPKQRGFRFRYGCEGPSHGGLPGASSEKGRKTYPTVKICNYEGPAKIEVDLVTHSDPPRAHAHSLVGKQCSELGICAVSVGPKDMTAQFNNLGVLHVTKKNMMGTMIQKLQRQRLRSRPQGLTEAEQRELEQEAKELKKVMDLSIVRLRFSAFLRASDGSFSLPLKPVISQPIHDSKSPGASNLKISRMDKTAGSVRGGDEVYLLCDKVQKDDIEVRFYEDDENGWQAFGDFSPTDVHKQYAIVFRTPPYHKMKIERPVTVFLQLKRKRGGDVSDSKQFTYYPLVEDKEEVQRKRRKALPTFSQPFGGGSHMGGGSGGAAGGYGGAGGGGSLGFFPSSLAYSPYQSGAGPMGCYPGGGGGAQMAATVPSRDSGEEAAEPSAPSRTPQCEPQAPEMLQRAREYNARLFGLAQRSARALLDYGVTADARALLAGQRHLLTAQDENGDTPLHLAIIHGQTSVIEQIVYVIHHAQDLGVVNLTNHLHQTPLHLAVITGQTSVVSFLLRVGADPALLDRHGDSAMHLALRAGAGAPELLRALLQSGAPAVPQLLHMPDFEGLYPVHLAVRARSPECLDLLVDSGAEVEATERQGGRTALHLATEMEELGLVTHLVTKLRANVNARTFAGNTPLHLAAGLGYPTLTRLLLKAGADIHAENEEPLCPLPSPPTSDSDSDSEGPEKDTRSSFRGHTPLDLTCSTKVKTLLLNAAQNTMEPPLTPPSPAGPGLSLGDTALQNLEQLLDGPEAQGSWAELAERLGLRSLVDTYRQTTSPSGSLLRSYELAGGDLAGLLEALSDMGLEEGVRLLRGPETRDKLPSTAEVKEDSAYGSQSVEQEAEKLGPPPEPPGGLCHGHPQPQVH
Sequence of Nuclear factor NF-kappa-B complex (Homo sapiens) (Q04206 whole entry, looked up): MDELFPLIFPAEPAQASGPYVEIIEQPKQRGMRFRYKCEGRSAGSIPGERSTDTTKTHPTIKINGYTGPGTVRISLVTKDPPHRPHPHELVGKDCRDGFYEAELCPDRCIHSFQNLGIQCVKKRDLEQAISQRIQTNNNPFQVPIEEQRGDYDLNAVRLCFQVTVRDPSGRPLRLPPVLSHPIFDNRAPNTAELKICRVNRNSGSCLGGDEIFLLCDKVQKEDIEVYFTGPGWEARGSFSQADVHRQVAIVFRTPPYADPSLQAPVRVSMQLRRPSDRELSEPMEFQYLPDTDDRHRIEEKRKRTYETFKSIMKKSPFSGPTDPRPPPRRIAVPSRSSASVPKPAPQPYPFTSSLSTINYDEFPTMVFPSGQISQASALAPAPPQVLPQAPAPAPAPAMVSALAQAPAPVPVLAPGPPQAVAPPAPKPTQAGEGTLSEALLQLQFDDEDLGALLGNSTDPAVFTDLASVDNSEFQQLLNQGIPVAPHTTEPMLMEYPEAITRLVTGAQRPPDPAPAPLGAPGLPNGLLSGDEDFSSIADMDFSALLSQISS

Row | SMILES | viability at 10 µM [1] [%] | viability at 10 µM (MDA-MB-231) [%] | inhibition [2] [%] | viability at 10 µM (NCI-H23) [%] | viability at 10 µM [3] [%] | viability at 10 µM [4] [%] | viability at 10 µM (ACHN) [%]
1 | O=C(Nc1cccc([N+](=O)[O-])c1)C1Cc2ccccc2O1 (configuration not stated) | 83 | 92 | 40 | 95 | 77 | 83 | 109
2 | O=C(Nc1cccc(C(F)(F)F)c1)C1Cc2ccccc2O1 (configuration not stated) | 95 | 102 | 30.5 | 100 | 69 | 93 | 134
3 | O=C(Nc1cc(Cl)ccc1Cl)c1cc2ccccc2o1 | 81 | 101 | 36.5 | 96 | 97 | 89 | 96
4 | COc1ccc(OC)c(NC(=O)C2Cc3ccccc3O2)c1 (configuration not stated) | 97 | 89 | 39.5 | 99 | 81 | 95 | 126
5 | O=C(Nc1cc(C(F)(F)F)cc(C(F)(F)F)c1)C1Cc2ccccc2O1 (configuration not stated) | 92 | 105 | 25 | 92 | 96 | 105 | 94
6 | O=C(Nc1ccccc1Cl)C1Cc2ccccc2O1 (configuration not stated) | 102 | 81 | 37.5 | 104 | 96 | 104 | 87
7 | COc1cccc(NC(=O)C2Cc3ccccc3O2)c1 (configuration not stated) | 99 | 80 | 16.5 | 102 | 89 | 106 | 135
8 | O=C(Nc1ccc(C(F)(F)F)cc1)c1cc2ccccc2o1 | 80 | 89 | 34.5 | 89 | 74 | 75 | 79
9 | O=C(Nc1ccc([N+](=O)[O-])cc1)c1cc2ccccc2o1 | 84 | 111 | 34.5 | 101 | 87 | 95 | 94
10 | O=C(Nc1ccccc1C(F)(F)F)c1cc2ccccc2o1 | 99 | 114 | 57.5 | 100 | 95 | 93 | 98
11 | O=C(Nc1ccc(Cl)c(Cl)c1)c1cc2ccccc2o1 | 96 | 80 | 40 | 100 | 113 | 102 | 95
12 | O=C(Nc1ccc(Cl)cc1)c1cc2ccccc2o1 | 68 | 96 | 43 | 92 | 84 | 91 | 89
13 | O=C(Nc1ccc(C(F)(F)F)cc1)C1Cc2ccccc2O1 (configuration not stated) | 96 | 82 | 41 | 97 | 60 | 99 | 124
14 | O=C(Nc1ccccc1C(F)(F)F)C1Cc2ccccc2O1 (configuration not stated) | 98 | 98 | 44.5 | 102 | 74 | 103 | 136
15 | O=C(Nc1cccc(Cl)c1)C1Cc2ccccc2O1 (configuration not stated) | 97 | 80 | 43.5 | 101 | 91 | 101 | 134
16 | O=C(Nc1ccccc1[N+](=O)[O-])c1cc2ccccc2o1 | 73 | 102 | 25.5 | 95 | 92 | 95 | 91
17 | O=C(Nc1ccccc1)c1cc2ccccc2o1 | 75 | 94 | 44 | 98 | 83 | 97 | 89
18 | O=C(Nc1ccccc1[N+](=O)[O-])C1Cc2ccccc2O1 (configuration not stated) | 94 | 92 | 28.5 | 97 | 89 | 89 | 108

Row | SMILES | viability at 10 µM [1] [%] | viability at 10 µM (MDA-MB-231) [%] | inhibition [2] [%] | viability at 10 µM (NCI-H23) [%] | viability at 10 µM [3] [%] | viability at 10 µM [4] [%] | viability at 10 µM (ACHN) [%]
19 | Cc1ccccc1NC(=O)c1cc2ccccc2o1 | 93 | 101 | 46 | 89 | 100 | 98 | 106
20 | Cc1ccc(NC(=O)C2Cc3ccccc3O2)cc1C (configuration not stated) | 97 | 86 | 44.5 | 92 | 94 | 99 | 137
21 | COc1ccc(NC(=O)C2Cc3ccccc3O2)cc1OC (configuration not stated) | 92 | 71 | 21.5 | 101 | 38 | 87 | 127
22 | COc1cc(NC(=O)c2cc3ccccc3o2)cc(OC)c1 | 95 | 106 | 63 | 102 | 92 | 90 | 102
23 | Cc1ccc(C)c(NC(=O)C2Cc3ccccc3O2)c1 (configuration not stated) | 88 | 88 | 22 | 103 | 55 | 81 | 129
24 | O=C(Nc1cc(Cl)cc(Cl)c1)C1Cc2ccccc2O1 (configuration not stated) | 98 | 89 | 75 | 99 | 89 | 114 | 89
25 | Cc1ccc(NC(=O)c2cc3ccccc3o2)cc1 | 82 | 105 | 34.5 | 104 | 103 | 95 | 96
26 | Cc1cc(C)cc(NC(=O)C2Cc3ccccc3O2)c1 (configuration not stated) | 91 | 97 | 34 | 97 | 94 | 95 | 136
27 | Cc1ccc(NC(=O)C2Cc3ccccc3O2)cc1 (configuration not stated) | 100 | 96 | 34.5 | 105 | 80 | 112 | 134
28 | O=C(Nc1cccc(O)c1)c1cc2ccccc2o1 | 85 | 100 | 41 | 95 | 90 | 87 | 84
29 | O=C(Nc1ccc(Cl)cc1)C1Cc2ccccc2O1 (configuration not stated) | 55 | 100 | 41.5 | 89 | 71 | 100 | 143
30 | Cc1ccc(NC(=O)c2cc3ccccc3o2)cc1C | 95 | 92 | 70 | 100 | 92 | 91 | 103
31 | O=C(Nc1ccc(O)cc1)C1Cc2ccccc2O1 (configuration not stated) | 88 | 91 | 18.5 | 106 | 98 | 102 | 122
32 | O=C(Nc1cc(Cl)cc(Cl)c1)c1cc2ccccc2o1 | 95 | 102 | 20 | 100 | 99 | 93 | 99
33 | O=C(Nc1cc(Cl)ccc1Cl)C1Cc2ccccc2O1 (configuration not stated) | 77 | 74 | 42.5 | 90 | 84 | 105 | 101
34 | COc1cc(NC(=O)C2Cc3ccccc3O2)cc(OC)c1 (configuration not stated) | 91 | 78 | 24 | 95 | 73 | 96 | 123
35 | COc1ccc(NC(=O)C2Cc3ccccc3O2)cc1 (configuration not stated) | 89 | 94 | 22.5 | 102 | 81 | 108 | 140
36 | O=C(Nc1cccc([N+](=O)[O-])c1)c1cc2ccccc2o1 | 88 | 111 | 11 | 99 | 95 | 98 | 93

Source: ChEMBL document CHEMBL3425509, “Design, synthesis, and biological evaluation of benzofuran- and 2,3-dihydrobenzofuran-2-carboxylic acid N-(substituted)phenylamide derivatives as anticancer agents and inhibitors of NF-κB” (Bioorg Med Chem Lett, 2015)
